Common to all, as to assay type: physicochemical
Holding throughout (conditions): compared to the known hydrochloride salt

A short description of data set [1]: Dissolution behavior / dissolution velocity of the salts.
The nature of a further data set: Solubility of the salt.
A further data set is described as follows: Stability of the salts.

As for `Cc1ccc(S(=O)(=O)O)cc1.Cn1cc(-c2ccc(S(=O)(=O)n3ccc(/C=C/C(=O)Nc4ccccc4N)c3)cc2)cn1` [toluenesulfonate salt, (E)-N-(2-Amino-phenyl)-3-{1-[4-(1-methyl-1H-pyrazol-4-yl)-benzenesulfonyl]-H-pyrrol-3-yl}-acrylamide toluene-4-sulfonate], in data set [1], the dissolution velocity result is reported as “particularly high”. The solubility result in the data set “Solubility of the salt” was “high”. Further, the stability result in the data set “Stability of the salts” is “enhanced”.

These data come from patent US8557858B2, “(E)-N-(2-amino-phenyl)-3-{1-[4-(l-methyl-1H-pyrazol-4-yl)-benzenesulfonyl]-1H-pyrrol-3-yl}-acrylamide salts” (4SC AG, priority 2008, dated 2013).
